BindingDB's records for doi:10.1016/j.bmcl.2018.08.039 (National Institutes of Health, 2018)

Biological target: Bromodomain-containing protein 4 (Homo sapiens, UniProt O60885)
Assay: Displacement of biotinylated acetylated peptide from recombinant human partial length BRD4 long isoform bromodomain 1/2 (N44 to E460 residues) expressed in Escherichia coli BL21 measured after 1 hr by Bromoscan method

SMILES	Kd
Cc1noc(C)c1-c1ccc2nc(-n3cc(CCO)cn3)nc(NCc3cccc(Cl)c3)c2c1	140 nM
Cc1noc(C)c1-c1ccc2nc(Cl)nc(NCc3cccc(Cl)c3)c2c1	980 nM
Cc1noc(C)c1-c1ccc2nc(-c3ccc(CO)nc3)nc(NCc3cccc(Cl)c3)c2c1	250 nM
CNc1nc(NCc2cccc(Cl)c2)c2cc(-c3c(C)noc3C)ccc2n1	2900 nM
